Measured values reported in BigSolDB 2.1.

N#CC(c1ccc(Cl)cc1)c1c(Cl)cc(-n2ncc(=O)[nH]c2=O)cc1Cl (stereo not given)
solubility (mole fraction)
Settings | in DMF | in acetone | in acetonitrile | in ethanol | in ethyl acetate | in isopropanol | in methanol | in n-butanol | in n-propanol | in toluene
283.15 K | 0.0254 | 0.012 | 0.00825 | 0.00168 | 0.0052 | 0.000798 | 0.00233 | 0.000481 | 0.00118 | 0.000263
288.15 K | 0.028 | 0.014 | 0.00972 | 0.00204 | 0.00634 | 0.00102 | 0.0027 | 0.000639 | 0.00146 | 0.000371
293.15 K | 0.0309 | 0.0162 | 0.0115 | 0.00245 | 0.0077 | 0.00129 | 0.00316 | 0.000851 | 0.00179 | 0.00052
298.15 K | 0.0339 | 0.0186 | 0.0135 | 0.00293 | 0.00924 | 0.00163 | 0.00369 | 0.0011 | 0.00221 | 0.000692
303.15 K | 0.0372 | 0.0215 | 0.0157 | 0.00347 | 0.0111 | 0.00204 | 0.00426 | 0.00142 | 0.00268 | 0.000923
308.15 K | 0.0407 | 0.0247 | 0.0183 | 0.00407 | 0.0132 | 0.00251 | 0.00494 | 0.00181 | 0.00321 | 0.00123
313.15 K | 0.0444 | 0.0281 | 0.0211 | 0.00476 | 0.0157 | 0.00308 | 0.00566 | 0.00229 | 0.00383 | 0.00162
318.15 K | 0.0484 | 0.032 | 0.0244 | 0.00555 | 0.0185 | 0.00374 | 0.00646 | 0.00288 | 0.0046 | 0.00211
323.15 K | 0.0527 | 0.0361 | 0.0279 | 0.00641 | 0.0217 | 0.00455 | 0.00737 | 0.0036 | 0.00543 | 0.0027
